Measurements as given in PubChem BioAssay (NCI).
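Following 48 hours of exposure in 96-well plates, responses at five concentrations were used to interpolate endpoints linearly. GI50 = concentration required for 50% inhibition of growth. TGI marks complete inhibition of growth.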

What was measured:
Assay in all cases: NCI anticancer screen, dose series, 48 h
[1] = system: 786-0 renal
[2] = system: A498 renal
[3] = system: A549 NSCLC
[4] = system: ACHN renal
[5] = system: BT-549 breast
[6] = system: CAKI-1 renal
[7] = system: CCRF-CEM leukemia
[8] = system: COLO 205 colon
[9] = system: DU-145 prostate
[10] = system: EKVX NSCLC
[11] = system: HCC-2998 colon
[12] = system: HCT-116 colon
[13] = system: HCT-15 colon
[14] = system: HL-60(TB) leukemia
[15] = system: HOP-62 NSCLC
[16] = system: HOP-92 NSCLC
[17] = system: HS 578T breast
[18] = system: HT29 colon
[19] = system: IGROV1 ovarian
[20] = system: K-562 leukemia
[21] = system: KM12 colon
[22] = system: LOX IMVI melanoma
[23] = system: M14 melanoma
[24] = system: MALME-3M melanoma
[25] = system: MCF7 breast
[26] = system: MDA-MB-231 breast
[27] = system: MDA-MB-435
[28] = system: MOLT-4 leukemia
[29] = system: NCI-H226 lung
[30] = system: NCI-H23 lung
[31] = system: NCI-H460 lung
[32] = system: NCI-H522 lung
[33] = system: NCI/ADR-RES ovarian
[34] = system: OVCAR-3 ovarian
[35] = system: OVCAR-4 ovarian
[36] = system: OVCAR-5 ovarian
[37] = system: OVCAR-8 ovarian
[38] = system: PC-3 prostate
[39] = system: RPMI-8226 leukemia
[40] = system: RXF 393 renal
[41] = system: SF-268 CNS
[42] = system: SF-295 CNS
[43] = system: SF-539 CNS
[44] = system: SK-MEL-2 melanoma
[45] = system: SK-MEL-28 melanoma
[46] = system: SK-MEL-5 melanoma
[47] = system: SK-OV-3 ovarian
[48] = system: SN12C renal
[49] = system: SNB-19 CNS
[50] = system: SNB-75 CNS
[51] = system: SR leukemia
[52] = system: SW-620 colon
[53] = system: T-47D breast
[54] = system: TK-10 renal
[55] = system: U251 CNS
[56] = system: UACC-257 melanoma
[57] = system: UACC-62 melanoma
[58] = system: UO-31 renal

SMILES: CN(c1ccc(F)cc1)S(=O)(=O)c1ccc(-c2cnc(C3CC3)o2)cc1
- GI50 [1]: 108 nM
- TGI [1]: > 41700 nM
- GI50 [2]: 43 nM
- TGI [2]: 493 nM
- GI50 [3]: 180 nM
- TGI [3]: > 100000 nM
- GI50 [4]: 274 nM
- TGI [4]: > 73100 nM
- GI50 [5]: 410 nM
- TGI [5]: 14100 nM
- GI50 [6]: 73.3 nM
- TGI [6]: > 100000 nM
- GI50 [7]: 51.8 nM
- TGI [7]: > 100000 nM
- GI50 [8]: 98.8 nM
- TGI [8]: 2400 nM
- GI50 [9]: 279 nM
- TGI [9]: > 76700 nM
- GI50 [10]: 289 nM
- TGI [10]: > 100000 nM
- GI50 [11]: 375 nM
- TGI [11]: > 50100 nM
- GI50 [12]: 41.3 nM
- GI50 [13]: 49.9 nM
- TGI [13]: > 50000 nM
- GI50 [14]: 28.8 nM
- TGI [14]: 306 nM
- GI50 [15]: 145 nM
- TGI [15]: > 100000 nM
- GI50 [16]: 1210 nM
- TGI [16]: 11300 nM
- GI50 [17]: 176 nM
- TGI [17]: > 100000 nM
- GI50 [18]: 44.3 nM
- TGI [18]: 14600 nM
- GI50 [19]: 66 nM
- TGI [19]: > 100000 nM
- GI50 [20]: 39.5 nM
- TGI [20]: > 43800 nM
- GI50 [21]: 54.5 nM
- TGI [21]: 32200 nM
- GI50 [22]: 69 nM
- TGI [22]: 14100 nM
- GI50 [23]: 52 nM
- TGI [23]: 19800 nM
- GI50 [24]: 11600 nM
- TGI [24]: 47600 nM
- GI50 [25]: 39.6 nM
- TGI [25]: 50900 nM
- GI50 [26]: 404 nM
- TGI [26]: > 39000 nM
- GI50 [27]: 28.4 nM
- TGI [27]: 94.8 nM
- GI50 [28]: 80.6 nM
- TGI [28]: > 37500 nM
- GI50 [29]: 239 nM
- TGI [29]: 30800 nM
- GI50 [30]: 358 nM
- TGI [30]: > 100000 nM
- GI50 [31]: 46.9 nM
- TGI [31]: 13300 nM
- GI50 [32]: 78.9 nM
- TGI [32]: 1700 nM
- GI50 [33]: 57.4 nM
- TGI [33]: 21400 nM
- GI50 [34]: 41.5 nM
- TGI [34]: 15800 nM
- GI50 [35]: 772 nM
- TGI [35]: > 100000 nM
- GI50 [36]: 495 nM
- TGI [36]: > 100000 nM
- GI50 [37]: 553 nM
- TGI [37]: > 100000 nM
- GI50 [38]: 136 nM
- TGI [38]: > 67800 nM
- GI50 [39]: 60.6 nM
- TGI [39]: 2510 nM
- GI50 [40]: 69.8 nM
- TGI [40]: 366 nM
- GI50 [41]: 1120 nM
- TGI [41]: > 100000 nM
- GI50 [42]: 52 nM
- TGI [42]: 25100 nM
- GI50 [43]: 71.8 nM
- TGI [43]: 1870 nM
- GI50 [44]: 3740 nM
- TGI [44]: 40900 nM
- GI50 [45]: 2600 nM
- TGI [45]: > 100000 nM
- GI50 [46]: 84.2 nM
- TGI [46]: 5920 nM
- GI50 [47]: 2520 nM
- TGI [47]: > 94600 nM
- GI50 [48]: 887 nM
- TGI [48]: 39100 nM
- GI50 [49]: 102 nM
- TGI [49]: > 100000 nM
- GI50 [50]: 12.4 nM
- TGI [50]: 25800 nM
- GI50 [51]: 31.5 nM
- GI50 [52]: 66.4 nM
- TGI [52]: > 100000 nM
- GI50 [53]: 75.9 nM
- TGI [53]: 71300 nM
- GI50 [54]: 26400 nM
- TGI [54]: > 100000 nM
- GI50 [55]: 69.4 nM
- TGI [55]: > 39100 nM
- GI50 [56]: 11100 nM
- TGI [56]: 52600 nM
- GI50 [57]: 48.1 nM
- TGI [57]: 19500 nM
- GI50 [58]: 766 nM
- TGI [58]: > 94100 nM
